IC50, Kd and Ka data for two molecules are collected here from ChEMBL document CHEMBL4831520, “Discovery of First-in-Class Dual PARP and EZH2 Inhibitors for Triple-Negative Breast Cancer with Wild-Type BRCA” (J Med Chem, 2021).

A value given as a limit tells only on which side of the number the result lay.

Assay [1] relates to MCF-10A. As to the kind of experiment: cells. In kind it is ADME, cell-based. Conditions: Homo sapiens, 72 h.
Description: Antiproliferative activity against human MCF-10A cells assessed as cell viability after 72 hrs by MTT assay
The target of assay [2] is T1, Histone-lysine N-methyltransferase EZH2 (Homo sapiens, UniProt Q15910).
Target sequence in this assay (Q15910 whole entry): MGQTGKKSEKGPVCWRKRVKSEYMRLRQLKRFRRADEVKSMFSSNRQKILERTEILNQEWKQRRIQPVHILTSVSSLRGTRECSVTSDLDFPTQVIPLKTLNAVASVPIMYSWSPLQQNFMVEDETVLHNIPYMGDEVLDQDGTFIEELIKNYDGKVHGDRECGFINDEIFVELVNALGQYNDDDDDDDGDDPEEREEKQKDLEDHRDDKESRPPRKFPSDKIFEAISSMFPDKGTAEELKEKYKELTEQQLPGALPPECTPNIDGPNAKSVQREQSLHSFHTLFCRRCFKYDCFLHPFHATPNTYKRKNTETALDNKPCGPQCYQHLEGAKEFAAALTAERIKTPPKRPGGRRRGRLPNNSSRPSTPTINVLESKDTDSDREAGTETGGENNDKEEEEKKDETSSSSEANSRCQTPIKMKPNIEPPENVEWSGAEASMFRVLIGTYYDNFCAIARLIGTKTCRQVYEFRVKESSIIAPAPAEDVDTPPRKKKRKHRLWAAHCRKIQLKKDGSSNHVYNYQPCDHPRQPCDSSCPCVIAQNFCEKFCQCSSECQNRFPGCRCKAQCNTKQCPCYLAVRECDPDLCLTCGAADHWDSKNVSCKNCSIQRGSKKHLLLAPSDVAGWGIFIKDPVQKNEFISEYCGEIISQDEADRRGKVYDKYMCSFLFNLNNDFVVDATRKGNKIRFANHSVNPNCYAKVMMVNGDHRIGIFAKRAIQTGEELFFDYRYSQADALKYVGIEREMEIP
Assay [3] addresses T1, Histone-lysine N-methyltransferase EZH2. The source holds these as a separate data set.
Target sequence in this assay (Q15910 whole entry): as above
Description: Inhibition of recombinant PRC2 complex (unknown origin) assessed as dissociation rate constant using H3K27me0 peptide substrate incubated for 3 hrs by HMT assay
The test system of assay [4] is MDA-MB-231. As to the kind of experiment: cells. In kind it is functional, cell-based. Conditions: Homo sapiens, MDA-MB-231, 72 h.
Description: Antiproliferative activity against human MDA-MB-231 cells assessed as cell viability after 72 hrs by MTT assay
Assay [5] concerns MCF7. As to the kind of experiment: cells. The class given is functional, cell-based. Conditions: Homo sapiens, MCF7, 72 h.
Description: Antiproliferative activity against human MCF7 cells assessed as cell viability after 72 hrs by MTT assay
Assay [6] deals with T1, Histone-lysine N-methyltransferase EZH2. Conditions: time 3.0 hrs.
Target sequence in this assay (Q15910 whole entry, looked up): as the sequence (Q15910 whole entry) above
The test system of assay [7] is MDA-MB-468. As to the kind of experiment: cells. The class given is functional, cell-based. Conditions: Homo sapiens, MDA-MB-468, 72 h.
Description: Antiproliferative activity against human MDA-MB-468 cells assessed as cell viability after 72 hrs by MTT assay
Assay [8] deals with T1, Histone-lysine N-methyltransferase EZH2. The source holds these as a separate data set.
Target sequence in this assay (Q15910 whole entry): as above
Description: Inhibition of recombinant PRC2 complex (unknown origin) assessed as kd/ka using H3K27me0 peptide substrate incubated for 3 hrs by HMT assay

One may read the IC50 as the concentration needed to halve the response being measured. Turning to `CC(=O)Nc1cc(-c2ccc(N3CCN(C(=O)c4cc(Cc5n[nH]c(=O)c6ccccc56)ccc4F)CC3)nc2)cc(C(=O)NCc2c(C)cc(C)[nH]c2=O)c1C`, the half-maximal inhibitory concentration (IC50) was above 50 µM in assay [1]; 36.5 nM in assay [2]; 2.63 µM in assay [4]; 12.1 µM in assay [5]; 0.41 µM in assay [7]. The Kd was 0.01586 s⁻¹ in assay [3] and 14.56 s⁻¹ in assay [8]. In assay [6], the Ka is 1.09 10^6/M/s.

For `CC[C@H](C)n1nc(C)c2c(C(=O)NCc3c(C)cc(C)[nH]c3=O)cc(-c3ccc(N4CCNCC4)nc3)cc21`, the concentration for half-maximal inhibition (IC50) in assay [1] was above 50 µM; in assay [2], 10.8 nM; in assay [4], 9.26 µM; in assay [5], 19.5 µM; in assay [7], 9.97 µM. For the same molecule, the Kd stood at 0.06934 s⁻¹ in assay [3] and 21.44 s⁻¹ in assay [8]. The Ka in assay [6] was 3.23 10^6/M/s.
